Measurements: ChEMBL document CHEMBL5375973, “Design and Synthesis of Novel Near-Infrared Fluorescence Probes Based on an Open Conformation of a Cytochrome P450 1B1 Complex for Molecular Imaging of Colorectal Tumors” (J Med Chem, 2023)

Key:
[1] = target: T1, Cytochrome P450 1A2 (Homo sapiens, UniProt P05177); test: Inhibition of recombinant CYP1A2 (unknown origin) using 7-ethoxyresorufin as substrate preincubated for 5 mins followed by NADPH addition incubated for 50 mins by EROD assay; type: ADME
T1 sequence (P05177 whole entry): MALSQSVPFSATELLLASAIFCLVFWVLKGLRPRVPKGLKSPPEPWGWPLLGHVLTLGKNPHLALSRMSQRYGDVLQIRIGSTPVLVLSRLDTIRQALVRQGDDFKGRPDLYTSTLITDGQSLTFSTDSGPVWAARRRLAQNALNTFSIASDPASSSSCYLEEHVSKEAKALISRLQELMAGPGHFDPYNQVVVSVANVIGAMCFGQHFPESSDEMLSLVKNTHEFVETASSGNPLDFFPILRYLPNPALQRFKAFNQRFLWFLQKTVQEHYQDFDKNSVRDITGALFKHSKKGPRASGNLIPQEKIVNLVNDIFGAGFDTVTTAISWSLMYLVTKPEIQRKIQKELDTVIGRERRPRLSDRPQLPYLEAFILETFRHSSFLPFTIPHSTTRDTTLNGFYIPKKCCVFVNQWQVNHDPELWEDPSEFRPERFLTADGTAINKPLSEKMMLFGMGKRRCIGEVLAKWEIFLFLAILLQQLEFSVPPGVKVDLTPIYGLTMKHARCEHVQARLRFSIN

[2] = test system: HFF-1; test: Cytotoxicity against human HFF-1 cells at 1 to 10 uM incubated for 24 hrs by MTT assay; type: toxicity, cell-based; settings: hff-1, 24 h, dose 1-10 µM
[3] = Stability of the compound assessed as drug degradation observed after 24 hrs by HPLC analysis; type: physicochemical
[4] = target: T2, Cytochrome P450 1B1 (Homo sapiens, UniProt Q16678); test: Binding affinity to CYP1B1 in human HCT-15 cells assessed as apparent dissociation constant incubated for 1 hr by flow cytometry analysis; type: ADME, cell-based; settings: read-out: Kd(app)
T2 sequence (Q16678 whole entry): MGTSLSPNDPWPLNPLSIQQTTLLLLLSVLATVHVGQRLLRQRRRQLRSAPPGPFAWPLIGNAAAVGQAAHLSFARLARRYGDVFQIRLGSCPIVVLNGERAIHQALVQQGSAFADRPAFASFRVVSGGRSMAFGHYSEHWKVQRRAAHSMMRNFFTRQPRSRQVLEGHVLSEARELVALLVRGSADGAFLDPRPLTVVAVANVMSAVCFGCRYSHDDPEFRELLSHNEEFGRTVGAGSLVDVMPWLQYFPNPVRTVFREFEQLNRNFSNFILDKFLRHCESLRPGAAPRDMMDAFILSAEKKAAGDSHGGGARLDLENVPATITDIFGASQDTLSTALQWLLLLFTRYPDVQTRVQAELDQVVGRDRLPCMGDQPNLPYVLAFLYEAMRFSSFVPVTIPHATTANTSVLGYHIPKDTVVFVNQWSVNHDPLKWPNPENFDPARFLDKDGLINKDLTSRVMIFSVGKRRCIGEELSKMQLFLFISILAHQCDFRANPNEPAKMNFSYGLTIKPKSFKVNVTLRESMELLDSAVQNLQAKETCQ

[5] = test system: HCT-15; test: Cytotoxicity against human HCT-15 cells assessed as cell viability at 10 uM incubated for 24 hrs by MTT assay; type: functional; settings: read-out: Activity
[6] = target: T2, Cytochrome P450 1B1; test: Inhibition of recombinant CYP1B1 (unknown origin) using 7-ethoxyresorufin as substrate preincubated for 5 mins followed by NADPH addition incubated for 35 mins by EROD assay; type: ADME
[7] = target: T2, Cytochrome P450 1B1; test: Binding affinity to CYP1B1 in human HCT-15 cells assessed as increase in fluorescence signal at 0.5 to 1 uM incubated for 1 hr by DAPI staining based confocal laser scanning microscopic analysis; type: ADME, cell-based; settings: hct-15, 1 h, dose 0.5-1 µM
[8] = Drug distribution in BALB/C mouse xenografted with human HCT-15 cells by measuring fluorescence intensity ratio in tumor at 12 nmol at iv administration in presence of CYP1B1 inhibitor, ANF observed after 24 hrs by IVIS imaging analysis; type: ADME, organism-based, Neoplasm; settings: in vivo
[9] = Drug distribution in BALB/C mouse xenografted with human HCT-15 cells assessed as increase in fluorescence intensity in tumor at 12 nmol at iv administration in presence of CYP1B1 inhibitor, ANF observed after 2 to 6 hrs by IVIS imaging analysis; type: ADME, organism-based, Neoplasm; settings: in vivo, time 2-6 hrs
[10] = Drug distribution in BALB/C mouse xenografted with human HCT-15 cells assessed as increase in photoacoustic signal in tumor at 12 nmol at iv administration observed after 6 hrs by photoacoustic imaging analysis; type: ADME, organism-based, Neoplasm; settings: in vivo
[11] = Drug distribution in BALB/C mouse xenografted with human HCT-15 cells by measuring fluorescence intensity ratio in muscle tissue at 12 nmol at iv administration in presence of CYP1B1 inhibitor, ANF observed after 24 hrs by IVIS imaging analysis; type: ADME, organism-based; settings: in vivo
[12] = target: T2, Cytochrome P450 1B1; test: Binding affinity to CYP1B1 in human HCT-15 cells assessed as increase in fluorescence signal at 0.5 to 1 uM incubated for 1 hr in presence of compound 14c by DAPI staining based confocal laser scanning microscopic analysis; type: ADME, cell-based; settings: hct-15, 1 h, dose 0.5-1 µM
[13] = target: T2, Cytochrome P450 1B1; test: Binding affinity to CYP1B1 in human HCT-15 cells assessed as increase in fluorescence signal at nucleus at 0.5 to 1 uM incubated for 1 hr by DAPI staining based confocal laser scanning microscopic analysis; type: ADME, cell-based; settings: hct-15, 1 h, dose 0.5-1 µM
[14] = Drug distribution in BALB/C mouse xenografted with human HCT-15 cells assessed as increase in fluorescence intensity in liver at 12 nmol at iv administration observed after 24 hrs by IVIS imaging analysis; type: ADME, organism-based; settings: in vivo
[15] = Drug distribution in BALB/C mouse xenografted with human HCT-15 cells by measuring fluorescence intensity ratio in tumor at 12 nmol at iv administration observed after 24 hrs by IVIS imaging analysis; type: ADME, organism-based, Neoplasm; settings: in vivo
[16] = Drug distribution in BALB/C mouse xenografted with human HCT-15 cells by measuring fluorescence intensity ratio in tumor at 12 nmol at iv administration observed after 6 hrs by IVIS imaging analysis; type: ADME, organism-based, Neoplasm; settings: in vivo
[17] = Drug distribution in BALB/C mouse xenografted with human HCT-15 cells assessed as increase in fluorescence intensity in tumor at 12 nmol at iv administration observed after 2 hr by IVIS imaging analysis; type: ADME, organism-based, Neoplasm; settings: in vivo
[18] = target: T2, Cytochrome P450 1B1; test: Binding affinity to CYP1B1 in human HFF-1 cells assessed as increase in fluorescence signal at 0.5 to 1 uM incubated for 1 hr by DAPI staining based confocal laser scanning microscopic analysis; type: ADME, cell-based; settings: hff-1, 1 h, dose 0.5-1 µM
[19] = Drug distribution in BALB/C mouse xenografted with human HCT-15 cells assessed as increase in photoacoustic signal in tumor at 12 nmol at iv administration observed after 24 hrs by photoacoustic imaging analysis; type: ADME, organism-based, Neoplasm; settings: in vivo
[20] = Drug distribution in BALB/C mouse xenografted with human HCT-15 cells by measuring fluorescence intensity ratio in tumor at 12 nmol at iv administration in presence of CYP1B1 inhibitor, ANF observed after 2 hrs by IVIS imaging analysis; type: ADME, organism-based, Neoplasm; settings: in vivo
[21] = Drug distribution in BALB/C mouse xenografted with human HCT-15 cells assessed as increase in fluorescence intensity in tumor at 12 nmol at iv administration observed after 6 hr by IVIS imaging analysis; type: ADME, organism-based, Neoplasm; settings: in vivo
[22] = Drug distribution in BALB/C mouse xenografted with human HCT-15 cells by measuring fluorescence intensity ratio in tumor at 12 nmol at iv administration in presence of CYP1B1 inhibitor, ANF observed after 4 hrs by IVIS imaging analysis; type: ADME, organism-based, Neoplasm; settings: in vivo
[23] = target: T2, Cytochrome P450 1B1; test: Binding affinity to CYP1B1 in human HCT-15 cells assessed as increase in fluorescence signal at cytoplasm at 0.5 to 1 uM incubated for 1 hr by DAPI staining based confocal laser scanning microscopic analysis; type: ADME, cell-based; settings: hct-15, 1 h, dose 0.5-1 µM
[24] = Drug distribution in BALB/C mouse xenografted with human HCT-15 cells by measuring fluorescence intensity ratio in muscle tissue at 12 nmol at iv administration observed after 24 hrs by IVIS imaging analysis; type: ADME, organism-based; settings: in vivo
[25] = Drug distribution in BALB/C mouse xenografted with human HCT-15 cells by measuring fluorescence intensity ratio in tumor at 12 nmol at iv administration observed after 2 hrs by IVIS imaging analysis; type: ADME, organism-based, Neoplasm; settings: in vivo
[26] = Drug distribution in BALB/C mouse xenografted with human HCT-15 cells assessed as increase in photoacoustic signal in tumor at 12 nmol at iv administration observed after 2 hrs by photoacoustic imaging analysis; type: ADME, organism-based, Neoplasm; settings: in vivo
[27] = Drug distribution in BALB/C mouse xenografted with human HCT-15 cells by measuring fluorescence intensity ratio in tumor at 12 nmol at iv administration in presence of CYP1B1 inhibitor, ANF observed after 6 hrs by IVIS imaging analysis; type: ADME, organism-based, Neoplasm; settings: in vivo
[28] = Drug distribution in BALB/C mouse xenografted with human HCT-15 cells by measuring fluorescence intensity ratio in tumor at 12 nmol at iv administration observed after 4 hrs by IVIS imaging analysis; type: ADME, organism-based, Neoplasm; settings: in vivo

## COc1ccc(OC)c2c1c(OC)cc1c(=O)cc(-c3cc(F)cc(NC(=O)CCCCCCN)c3)oc12
[1]
  IC50: 1460 nM

## CCN1/C(=C/C=C/C=C/C2=[N+](CCCCCC(=O)NCCOCCOCCOCC(=O)Nc3cc(F)cc(-c4cc(=O)c5cc(OC)c6c(OC)ccc(OC)c6c5o4)c3)c3ccc4c(S(=O)(=O)[O-])cc(S(=O)(=O)O)cc4c3C2(C)C)C(C)(C)c2c1ccc1c(S(=O)(=O)O)cc(S(=O)(=O)O)cc21
[2]
  Activity: Non-Toxic
[3]
  Stability: Stable
[4]
  Kd: 168 nM
[5]
  viability at 10 µM: > 80%

## COc1ccc(OC)c2c1c(OC)cc1c(=O)cc(-c3cc(N)cc(F)c3)oc12
[6]
  IC50: 2.03 nM

## COc1ccc(OC)c2c1c(OC)cc1c(=O)cc(-c3cc(O)cc(F)c3)oc12
[6]
  IC50: 95 nM

## COc1ccc(OC)c2c1c(OC)cc1c(=O)cc(-c3cc(F)cc(NC(=O)COCCOCCOCCN)c3)oc12
[1]
  IC50: > 2000 nM

## CCN1/C(=C/C=C/C=C/C2=[N+](CCCCCC(=O)NCCOCCOCCOCCOc3cc(F)cc(-c4cc(=O)c5cc(OC)c6c(OC)ccc(OC)c6c5o4)c3)c3ccc4c(S(=O)(=O)[O-])cc(S(=O)(=O)O)cc4c3C2(C)C)C(C)(C)c2c1ccc1c(S(=O)(=O)O)cc(S(=O)(=O)O)cc21
[7]
  Activity: Active
[2]
  Activity: Non-Toxic
[8]
  Ratio: 1.34
[9]
  Drug uptake: Not Active
[10]
  Drug uptake: Active
[11]
  Ratio: 12.1
[12]
  Activity: Not Active
[13]
  Activity: Active
[3]
  Stability: Stable
[14]
  Drug uptake: Active
[15]
  Ratio: 1.69
[16]
  Ratio: 2.15
[17]
  Drug uptake: Active
[18]
  Activity: Not Active
[19]
  Drug uptake: Not Active
[20]
  Ratio: 1.06
[4]
  Kd: 93.7 nM
[21]
  Drug uptake: Active
[22]
  Ratio: 1.19
[23]
  Activity: Active
[24]
  Ratio: 26.51
[5]
  viability at 10 µM: > 80%
[25]
  Ratio: 1.92
[26]
  Drug uptake: Active
[27]
  Ratio: 1.32
[28]
  Ratio: 1.95

## COc1ccc(OC)c2c1c(OC)cc1c(=O)cc(-c3ccc(O)c(F)c3)oc12
[6]
  IC50: 113 nM

## CCN1/C(=C/C=C/C=C/C2=[N+](CCCCCC(=O)NCCCCCCCCC(=O)Nc3cc(F)cc(-c4cc(=O)c5cc(OC)c6c(OC)ccc(OC)c6c5o4)c3)c3ccc4c(S(=O)(=O)[O-])cc(S(=O)(=O)O)cc4c3C2(C)C)C(C)(C)c2c1ccc1c(S(=O)(=O)O)cc(S(=O)(=O)O)cc21
[2]
  Activity: Non-Toxic
[3]
  Stability: Stable
[4]
  Kd: 213 nM
[5]
  viability at 10 µM: > 80%
